How the values were obtained:
Type in all cases: ADME, organism-based
[1] = Terminal half life in C57BL/6N mouse at 0.171 mM, iv measured upto 24 hrs; conditions: in vivo, read-out: beta t1/2 (converted)
[2] = Primary phase half life in C57BL/6N mouse at 0.171 mM, iv measured upto 24 hrs; conditions: in vivo, read-out: alphat1/2 (converted)
[3] = Clearance in C57BL/6N mouse at 0.171 mM, iv measured upto 24 hrs; conditions: in vivo
[4] = AUCt in C57BL/6N mouse at 0.171 mM, iv measured upto 24 hrs; conditions: in vivo
[5] = Volume of distribution in C57BL/6N mouse at 0.171 mM, iv measured upto 24 hrs; conditions: in vivo

Compound | half-life at 171 µM [1] | half-life at 171 µM [2] | clearance at 171 µM [3] | AUC(0-t) at 24 h, 171 µM [4] | Vd at 171 µM [5]
CCCCCCCCCCCCCCCC(=O)NCCCCC(NC(=O)COCCOCCNC(=O)CCCCC[N+]1=C(/C=C/C2=CC(=C/C=C3/N(C)c4ccc(S(=O)(=O)O)cc4C3(C)C)/CCC2)C(C)(C)c2cc(S(=O)(=O)[O-])ccc21)C(=O)NCCOCCOCC(=O)NCCOCCOCC(=O)NC(CSSc1ccccn1)C(N)=O (centres undefined) | 7.62 h | 1.51 h | 0.135 mL/min/kg | 146000 ng·h/mL | 0.0284 L/kg
CN1/C(=C/C=C2C=C(/C=C/C3=[N+](CCCCCC(=O)NCCOCCOCC(=O)NCCOCCOCC(=O)NCCOCCOCC(=O)NC(CSSc4ccccn4)C(N)=O)c4ccc(S(=O)(=O)[O-])cc4C3(C)C)CCC/2)C(C)(C)c2cc(S(=O)(=O)O)ccc21 (centres undefined) | 4.73 h | 1.26 h | 0.307 mL/min/kg | 50500 ng·h/mL | 0.0413 L/kg
CCCCCCCCCCCCCCCC(=O)NCCCCC(NC(=O)COCCOCCNC(=O)CCCCC[N+]1=C(/C=C/C2=CC(=C/C=C3/N(C)c4ccc(S(=O)(=O)O)cc4C3(C)C)/CCC2)C(C)(C)c2cc(S(=O)(=O)[O-])ccc21)C(=O)NCCOCCOCC(=O)NCCOCCOCC(N)=O (centres undefined) | 0.83 h |  | 0.563 mL/min/kg | 30800 ng·h/mL | 0.0427 L/kg
